Results from US6716442B2, “Process and means for the eradication of fleas in the habitats of small mammals” (Merial, priority 1997, dated 2004).
Like-named read-outs stand apart in the source and are kept apart here.

Legend:
fleas [1] = settings: cats; concentrated solution for point application (spot on); cited from earlier work
fleas [2] = settings: dogs; concentrated solution for point application (spot on); cited from earlier work
fleas [3] = assay: Similar flea eradication test on cats; assay type: in vivo; settings: same results as dogs
[4] = tested on: fleas (Ctenocephalides felis); assay: Eradication of fleas in enclosures of infested dogs treated monthly with a spot-on solution; assay type: in vivo; settings: group C, 10% fipronil cutaneous point solution on days 0, 28, 56, 84, weekly egg counts, body and comb counts over weeks 1-12, regularly reinfested
Excerpt: The test used dogs in good health.
The dogs were divided by groups of three dogs into enclosures of area approximately 4.80 m long (16 feet) and 1.5 m wide (5 feet) each containing a shelter and soil especially favourable to the development of the immature stages of the fleas (Ctenocephalides felis).
A total of 18 dogs, that is to say six enclosures, was allocated to the control group A.
A group C of six dogs (2 enclosures) preinfested in this way received the treatment according to the invention by application of a cutaneous point solution having a concentration of 10% of fipronil.
The doses of concentrated composition for local cutaneous application of fipronil were as follows:
The animals of group C were treated on day 0 and then every 28 days, that is to say the days 28, 56 and 84.

N#Cc1nn(-c2c(Cl)cc(C(F)(F)F)cc2Cl)c(N)c1[S+]([O-])C(F)(F)F (stereo not shown) [fipronil, 1-[2,6-Cl2-4-CF3-phenyl]-3-CN-4-[SO—CF3]-5-NH2-pyrazole]
period of anti-flea efficacy (fleas [1]): six
period of anti-flea efficacy (fleas [2]): 2 to 3 months
reinfestation (fleas [3]): total absence of reinfestation
rate of control of the infestation [4]: 100%
